From US20240156790A1, “COMPOUNDS, COMPOSITIONS, AND METHODS FOR MODULATING FERROPTOSIS AND TREATING EXCITOTOXIC DISORDERS” (THE TRUSTEES OF COLUMBIA UNIVERSITY IN THE CITY OF NEW YORK, priority 2018, published 2024)
Entries after “also recorded” stand apart in the source; their conditions may differ. Like-named read-outs stand apart in the source and are kept apart here.

Assay: Microsomal Stability Assay (Examples 6 and 8)
Type: in vitro ADME, mouse
Settings: for half-life at 20 µM: CD-1, mouse, liver microsomes; for microsomal stability / half-life, in words: assessed over two hours
Method: (§1) To a 96-well polypropylene plate was added phosphate buffer (182.2 μL, pH 7.4, 100 mM) followed by addition of NADPH-regenerating system solution A (10 μL), and NADPH regenerating system solution B (2 μL) (Corning Gentest 3P NADPH regenerating system solution A (#451220) and B (#451200)). A stock solution of analog (0.8 μL. 5 mM) or fer-1 (positive control) was added and the mixture was warmed to 37° C. for 5 min. Mouse microsomes (CD-1, 20 mg/mL, Life Technologies) (5 μL, thawed in 37° C. water bath before use) were added. The resulting reaction mixture was kept at 37° C. with gentle agitation for the duration of the experiment. At selected time points (0, 1, 5, 10, 20, 30, 60 and 120 min) aliquots (15 μL) were withdrawn from the plate and quenched upon addition to cold methanol (60 μL), containing an internal standard (5 μM) in a separate 96-well polypropylene plate. At the completion of the final time-point, the samples were centrifuged at 4,000 rpm for 5 min at 4° C. The supernatant (40 μL) was withdrawn and transferred to a sample vial with insert. The samples were analyzed by LC-MS. LC-MS analysis was performed on a platform comprising a Thermo Scientific Dionex Ultimate 3000 and a Bruker amaZon SL equipped with an electrospray ionization source controlled by Bruker Hystar 3.2. Chromatographic separation was performed by injecting 5 μL of the sample onto an Agilent Eclipse Plus C18 column (2.1×50 mm, 3.5 μm) maintained at 20° C. The flow rate was maintained at 400 μL/min. The initial flow conditions were 80% solvent A (water containing 0.1% acetic acid) and 20% solvent B (methanol containing 0.1% acetic acid). Solvent B was raised to 80% over 0.50 min by 1.50 min. Solvent B was raised to 100% by 5.00 min and held there for 3.25 min. […] All analogs were detected in positive mode as [M+H]*. The percent of compound remaining at each time-point was calculated as the ratio of the integrated compound peak over the internal standard peak and standardized to the t=0 time-point. Values were plotted in GraphPad Prism 9 and fit with a one phase decay.
as §1, with “and NADPH-regenerating” for “and NADPH regenerating”, “rpm (1872 g)” for “rpm”, “[M+H]*. […]” for “[M+H]*. The percent of compound remaining at each time-point was calculated as the ratio of the integrated compound peak over the internal standard peak and standardized to the t=0 time-point. Values were plotted in GraphPad Prism 9 and fit with a one phase decay.”

[1] = pH 7.4, text, read-out: half-life in mouse liver microsomes
[2] = pH 7.4, independent test I, read-out: t1/2 I
[3] = pH 7.4, independent test II, read-out: t1/2 II
[4] = pH 7.4, independent test III, read-out: t1/2 III

Structure (SMILES)	half-life at 20 µM [1]	microsomal stability / half-life, in words	half-life at 20 µM [2]	half-life at 20 µM [3]	half-life at 20 µM [4]
CCOC(=O)c1ccc(NC2CCCCC2)c(N)c1 [Fer-1, Ferrostatin-1, reference compound]	0.04 h				
Cc1noc(-c2ccc(NC3CCCCC3)c(NC3CCCCC3)c2)n1 [PHB4082, N1,N2-dicyclohexyl-4-(3-methyl-1,2,4-oxadiazol-5-yl)benzene-1,2-diamine]		half-lives greater than two hours			
Cc1noc(-c2cnc(NC3CCCCC3)c(NC3CCCCC3)c2)n1 [TH-2-31, N^2,N^3-dicyclohexyl-5-(3-methyl-1,2,4-oxadiazol-5-yl)pyridine-2,3-diamine]	0.5 to 1 h	the most stable; also recorded: half-life greater than two hours	> 2 h	> 2 h	> 2 h
CCC(CC)Nc1cc(-c2nc(C)no2)cnc1NC1CCCCC1 [TH-4-55-2, N^2-cyclohexyl-5-(3-methyl-1,2,4-oxadiazol-5-yl)-N^3-(pentan-3-yl)pyridine-2,3-diamine]	> 1 h	half-life greater than two hours	> 2 h	> 2 h	> 2 h
Cc1noc(-c2cnc(NC3CCCC3)c(NC3CCCC3)c2)n1 [TH-4-67, N^2,N^3-dicyclopentyl-5-(3-methyl-1,2,4-oxadiazol-5-yl)pyridine-2,3-diamine]	> 1 h	half-life greater than two hours	> 2 h	> 2 h	> 2 h
